In ChEMBL document CHEMBL2321687, “Identification of a novel arylpiperazine scaffold for fatty acid amide hydrolase inhibition with improved drug disposition properties” (Bioorg Med Chem Lett, 2013):
Activity calls are given as the source filed them. The rule behind the calls is not given here.

What was measured:
[1] = target: T1, Fatty-acid amide hydrolase 1 (Mus musculus, UniProt O08914); assay: Inhibition of FAAH in mouse brain homogenate using [3Hethanolamine]AEA as substrate incubated for 20 mins prior to substrate addition measured after 15 mins by beta counting analysis; format: tissue-based
T1 sequence (O08914 whole entry): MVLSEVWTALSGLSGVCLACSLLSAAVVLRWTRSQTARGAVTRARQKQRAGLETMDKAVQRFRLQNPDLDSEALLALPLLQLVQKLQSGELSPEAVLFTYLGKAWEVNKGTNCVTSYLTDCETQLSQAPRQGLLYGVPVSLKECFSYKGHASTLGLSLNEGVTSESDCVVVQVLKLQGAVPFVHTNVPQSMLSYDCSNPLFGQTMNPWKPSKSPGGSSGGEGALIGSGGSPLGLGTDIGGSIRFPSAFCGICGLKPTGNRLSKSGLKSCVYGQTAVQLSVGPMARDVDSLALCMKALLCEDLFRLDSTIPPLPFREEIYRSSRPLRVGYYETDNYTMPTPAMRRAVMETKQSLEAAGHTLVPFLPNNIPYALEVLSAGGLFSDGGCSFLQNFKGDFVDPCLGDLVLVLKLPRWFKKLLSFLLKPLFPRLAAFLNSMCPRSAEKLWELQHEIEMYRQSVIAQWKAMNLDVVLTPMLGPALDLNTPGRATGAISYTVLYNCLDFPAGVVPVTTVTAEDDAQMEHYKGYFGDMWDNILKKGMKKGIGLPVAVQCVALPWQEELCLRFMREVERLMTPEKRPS

[2] = target: Fatty-acid amide hydrolase 1 (Mus musculus) (UniProt O08914); assay: Reversible noncompetitive inhibition of FAAH in mouse brain homogenate using [3Hethanolamine]AEA as substrate incubated for 20 mins prior to dialysis for 18 hrs followed by substrate addition measured after 15 mins; format: tissue-based
[3] = target: T2, Fatty-acid amide hydrolase 1 (Homo sapiens, UniProt O00519); assay: Inhibition of human FAAH using [3Hethanolamine]AEA as substrate incubated for 20 mins prior to substrate addition measured after 15 mins by beta counting analysis
T2 sequence (O00519 whole entry): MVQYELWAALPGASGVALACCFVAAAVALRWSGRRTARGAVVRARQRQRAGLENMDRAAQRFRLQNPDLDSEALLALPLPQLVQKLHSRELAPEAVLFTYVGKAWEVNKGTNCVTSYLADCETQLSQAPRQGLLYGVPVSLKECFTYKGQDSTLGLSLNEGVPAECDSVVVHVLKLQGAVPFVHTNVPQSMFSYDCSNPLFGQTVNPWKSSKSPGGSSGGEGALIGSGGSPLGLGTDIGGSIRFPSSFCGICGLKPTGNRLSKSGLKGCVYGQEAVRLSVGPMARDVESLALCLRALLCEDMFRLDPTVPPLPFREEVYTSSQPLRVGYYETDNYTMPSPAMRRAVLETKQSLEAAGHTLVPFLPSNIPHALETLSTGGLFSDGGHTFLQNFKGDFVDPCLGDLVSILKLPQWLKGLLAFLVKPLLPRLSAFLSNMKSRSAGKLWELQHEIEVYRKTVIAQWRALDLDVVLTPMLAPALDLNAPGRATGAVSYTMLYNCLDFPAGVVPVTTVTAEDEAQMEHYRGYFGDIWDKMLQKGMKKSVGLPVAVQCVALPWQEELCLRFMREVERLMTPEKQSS

SMILES | Ki [1] [µM] | inhibition [2] | IC50 [3] [µM] | Ki [3] [µM]
CCCCOc1ccc(NC(=O)Oc2cccc(N3CCNCC3)c2)cc1 | > 0.5 |  |  | 
C/C(=N\OC(=O)N1CCCCC1)c1cccc(N2CCN(C)CC2)c1 | > 0.5 |  |  | 
O=C(NCCCCCCc1ccccc1)Oc1cccc(N2CCNCC2)c1 | 0.013 | Active | 0.044 | 0.026

More lines, main results first:

Ki [1] [µM] | SMILES | inhibition [2] | IC50 [3] [µM] | Ki [3] [µM]
0.263 | O=C(NCCCCCCc1ccccc1)N1CCN(c2cccc(-n3cccc3)c2)CC1 |  |  | 
> 0.5 | NC(=O)c1ccn(-c2cccc(N3CCN(C(=O)NCCCCCCc4ccccc4)CC3)c2)c1 |  |  | 
0.01 | NC(=O)c1ccn(-c2cccc(N3CCN(CCCCCCc4ccccc4)CC3)c2)c1 | Active | > 1 | 
